# Assay results as given in patent publication US20220047532A1, “AMPA RECEPTOR ANTAGONISTS SPECIFIC FOR CALCIUM PERMEABLE AMPA RECEPTORS AND METHODS OF TREATMENT THEREWITH” (priority 2018, published 2022).
# “Also recorded” adds a separate entry of the source. Read-outs that look alike come from different tables or passages of the source.
# Legend:
# [1] = test system: MeCP2 S421 phosphorylation; assay: KA-induced MeCP2 S421 phosphorylation, immunoblot, cortical E18+10DIV cultures; type: cell-based, rat; conditions: Ctx
# Procedure: (§1) Nuclei were isolated as previously described (81). […] Blots were incubated with the following primary antibodies: MeCP2 (S421) (1:1000) and total-MeCP2 (1:1000, kind gifts from Dr. Michael Greenberg, Harvard Medical School), phospho-CaMKII (T286) (1:250, Cell Signaling), pan-CaMKII (1:250, Cell Signaling), ([…] (1:5000, Sigma), and lamin A/C (1:1000, Cell Signaling).
# [2] = test system: MeCP2 S421 phosphorylation; assay: KA-induced MeCP2 S421 phosphorylation, immunoblot, hippocampal E18+10DIV cultures; type: cell-based, rat; conditions: H
# Procedure: as §1
# [3] = test system: MeCP2 S421 phosphorylation; assay: In vivo hypoxic seizure (HS)-induced MeCP2 S421 phosphorylation in P10 rats; set-up: species or system rat; conditions: for MeCP2 S421 phosphorylation 3 hrs post-HS: P10 rats, normalized to mean C+V control (100±8%), HS+V 157±11%, 20 mg/kg NBQX, 20 mg/kg IEM-1460, nimodipine 10 mg·kg, i.p.; for Baseline MeCP2 phosphorylation in control rats: control rats without HS
# Procedure: as §1
# [4] = test system: CDKL5 R59X mouse; assay: Behaviour of CDKL5 R59X mice after acute in vivo treatment
# [5] = test system: PTZ-induced seizures; conditions: in vivo; cited from earlier work
# [6] = test system: GluA2-lacking AMPAR; assay: AMPAR eEPSC currents in CDKL5 R59X mouse model; type: cell-based
# [7] = test system: CaMKII phosphorylation; assay: In vivo hypoxic seizure-induced CaMKII phosphorylation; conditions: HS model
# Procedure: as §1
# [8] = test system: E18+10DIV cultured cortical neurons; assay: Fura-2 ratiometric Ca2+ imaging of KA-induced Ca2+ influx, cortical cultures; type: cell-based, rat; conditions: cortex
# Procedure: (§2) Ratiometric Ca^2+ imaging was performed on E17/18+10 DIV hippocampal and cortical cultures, plated at 1×10^5 cells/well in 24 well plates. […] After 10 min bathed in 100 μM D-APV (Tocris), cells were stimulated using fast (<2 min) bath application of 30 μM kainate (KA). […] Changes in Ca^2+ influx were assessed by change in 340/380 nm excitation ratio from baseline in individual somas (using regions of interests) in NisElements software (see Supp. Methods).
# [9] = test system: MeCP2 S421 phosphorylation; assay: KCl-induced MeCP2 S421 phosphorylation, immunoblot, hippocampal cultures; type: cell-based, rat
# Procedure: as §1
# [10] = test system: E18+10DIV cultured hippocampal neurons; assay: Fura-2 ratiometric Ca2+ imaging of KA-induced Ca2+ influx, hippocampal cultures; type: cell-based, rat; conditions: hippocampus
# Procedure: as §2
# [11] = test system: CaMKII T286 phosphorylation; type: cell-based
# Procedure: as §1
# [12] = test system: MeCP2 S421 phosphorylation; assay: KCl-induced MeCP2 S421 phosphorylation, immunoblot, cortical cultures; type: cell-based, rat
# Procedure: as §1
# [13] = test system: hypoxic seizure (HS) model; conditions: post-seizure in vivo treatment; previously shown (6, 12); cited from earlier work
# [14] = test system: hippocampal CA1 AMPAR function, silent synapses, LTP; assay: Hippocampal slice electrophysiology after P10 hypoxic seizures, post-seizure treatment; type: in vivo, rat
# Procedure: FIG. 23 ELS induce altered hippocampal CA1 AMPAR function, silent synapses, and synaptic plasticity. Hippocampal brains slices removed at 48-72 h after P10 hypoxic seizures (HS) cause (A) enhanced AMPAR-mediated sEPSCs, (B) inwardly rectifying AMPAR eEPSCs, and (C) a precocious loss of silent synapses indicated by both decreased failure rates and silent synapse fraction. These changes yield attenuated synaptic plasticity both in early-life and as adults: (D) reduced eEPSC amplitude in post-HS 48-72 hrs from whole-cell LTP pairing protocol; (E,F) decreased potentiation from extracellular LTP recordings.
# [15] = test system: primary auditory cortex (AI) silent synapses; assay: PTZ-ELS auditory cortex critical period plasticity; type: in vivo; conditions: PTZ P9-11; 1 dose following seizure induction each day
# [16] = test system: tdTom+ cells; assay: tdTom+ cell labelling after PTZ seizures at P9-11 in FosTRAP mice; type: in vivo, mouse; conditions: NBQX 1 hr post PTZ stage 5 seizures; preliminary cohort n=3/group
# Procedure: Seizures will be induced as described above. For the KA model, beginning 1 hour after KA seizure, mice will receive doses of either NBQX (20 mg/kg i.p.), […] IEM 1460 (10 mg/kg i.p.), or saline every 12 hrs×4 doses as per prior protocols with ELS. For the PTZ model, we will follow our prior protocol, and deliver the NBQX (20 mg/kg i.p.), IEM 1460 (10 mg/kg i.p.) or saline at 1 hr post seizure on P9, P10, and […] (FIG. 33). Mice will be euthanized at P15, P30, or P60. Two sets of groups will be prepared (n=12/group): the first for perfusion and subsequent IHC to determine whether treatment decreases the number of tdTom+ cells. Confocal imaging of at least 2 fields/section and 3 sections/mouse in defined areas of hippocampal CA subfields and dentate gyrus (hippocampus: Bregma −1.46 to −2.70 mm (interaural 2.34 mm-1.1 mm) or primary auditory cortex (Bregma −2.18 mm to −3.64 mm (interaural 1.5 mm to 0.16 mm) will be used. MAP2, Iba-1, GFAP, and GAD67 will be used to confirm cell identity. Cell counts will be performed using ImageJ software and group differences analyzed by 2-way ANOVA/Bonferroni correction. Multivariate linear and logistic regression will be used to evaluate effects of age, gender, treatment groups and seizure severity in ELS. […]
# [17] = KA-induced, 5 μM KN93, KN92 5 μM, EGTA 1 mM
# [18] = KA 100 μM, 100 μM D-APV alone, vs. KA, NaOH+DMSO treated controls
# [19] = KA 100 μM, in the presence of APV, NBQX, NASPM 150 μM, nimodipine 5 μM
# [20] = KA+APV plus NBQX 50 μM or NASPM 150 μM, vs. KA+APV condition (100±3%)
compound,measurement,setting,value
O=C(O)CN(CCOCCOCCN(CC(=O)O)CC(=O)O)CC(=O)O [EGTA],MeCP2 S421 phosphorylation,[1]; [17],72±7%
same,MeCP2 S421 phosphorylation,[2]; [17],66±7%
COc1ccc(S(=O)(=O)N(CCO)c2ccccc2CN(C)C/C=C/c2ccc(Cl)cc2)cc1 [KN93],MeCP2 S421 phosphorylation,[1]; [17],10±3%
same,MeCP2 S421 phosphorylation,[2]; [17],3±1%
COc1ccc(S(=O)(=O)Nc2ccccc2CN(C)C/C=C/c2ccc(Cl)cc2)cc1 [KN92],MeCP2 S421 phosphorylation,[1]; [17],99±3%
same,MeCP2 S421 phosphorylation,[2]; [17],97±3%
Br.C[N+](C)(C)CCCCCNCC12CC3CC(CC(C3)C1)C2.[Br-] [IEM-1460],MeCP2 S421 phosphorylation 3 hrs post-HS,[3],106±11%
same,Baseline MeCP2 phosphorylation in control rats,[3],did not affect
same,Activity-dependent MeCP2 phosphorylation in cultured neurons in vitro,"[1]; p<0.0049, stimulus and concentration not stated",reduced
same,Seizure behavior latency,[4],rescued
same,Autistic like impairment in social behavior / social deficits,[4]; acute in vivo treatment,rescued; also recorded: improves
same,Spatial and temporal working memory in Y maze (% spontaneous alternating behavior),[4]; acute in vivo treatment,rescued; also recorded: improves
same,Activity-dependent MeCP2 phosphorylation in cultured neurons in vitro,"[2]; p<0.0361, stimulus and concentration not stated",reduced
same,Effect in PTZ-induced seizures,[5],anti-seizure effects
same,Enhanced AMPAR currents,[6],decreased; also recorded: attenuated
same,Seizure-induced CaMKII phosphorylation in vivo,[7],prevented
CC(=O)OCOC(=O)CN(CCOCCOCCN(CC(=O)OCOC(C)=O)CC(=O)OCOC(C)=O)CC(=O)OCOC(C)=O [EGTA-AM],Phosphorylation of MeCP2 S421,"[1]; 100 μM EGTA-AM, p=0.0001",reduced
same,Phosphorylation of MeCP2 S421,"[2]; 100 μM EGTA-AM, p=0.0057",reduced
N[C@H](CCCP(=O)(O)O)C(=O)O [D-APV],MeCP2 S421 phosphorylation,[1]; [18],76±13%
same,"KA-induced Ca2+ influx, normalized mean peak ratio","[8]; KA 30 μM, D-APV 100 μM, normalized to KA only (100±2%)",74±3%
same,KCl-mediated MeCP2 phosphorylation,"[9]; hippocampal neurons, 10 DIV, D-APV alone",73±21%
same,MeCP2 S421 phosphorylation,[2]; [18],89±13%
same,"KA-induced Ca2+ influx, normalized mean peak ratio","[10]; KA 30 μM, D-APV 100 μM, normalized to KA only (100±3%)",73±3%
same,KA-induced CaMKII phosphorylation,"[11]; Ctx, pre-treatment with D-APV alone",81±11%
same,KA-induced CaMKII phosphorylation,"[11]; H, pre-treatment with D-APV alone",86±9%
same,KCl-mediated MeCP2 phosphorylation,"[12]; cortical neurons, 10 DIV, D-APV alone",87±21%
NS(=O)(=O)c1cccc2c1c([N+](=O)[O-])cc1nc(O)c(O)nc12 [NBQX],MeCP2 S421 phosphorylation 3 hrs post-HS,[3],81±8%
same,Baseline MeCP2 phosphorylation in control rats,[3],did not affect
same,MeCP2 S421 phosphorylation,[1]; [19],0±0.3%
same,"Later-life seizures, altered synaptic plasticity, and autistic-like social deficits",[13],prevents
same,Impaired LTP,[14]; 48-72 hr post HS and as P60 adults,protects
same,Enhanced AMPAR function following ELS,[14]; post-seizure treatment,attenuates
same,Premature silent synapse loss,[14]; post-seizure treatment,reverses
same,Remaining NMDAR-insensitive Ca2+ influx,[8]; [20],3±2%
same,Subsequent A1 plasticity,[15],permits
same,Synapse unsilencing,[15],prevents
same,KCl-mediated MeCP2 phosphorylation,"[9]; H, in the presence of D-APV",21±6%
same,KCl-induced phosphorylation of MeCP2 S421,"[9]; hippocampus, NBQX alone, p=0.0003",reversed
same,MeCP2 S421 phosphorylation,[2]; [19],3±5%
same,Remaining NMDAR-insensitive Ca2+ influx,[10]; [20],31±2%
same,KA-induced CaMKII phosphorylation,"[11]; Ctx, in the presence of D-APV",18±4%
same,KA-induced CaMKII phosphorylation,"[11]; H, in the presence of D-APV",21±3%
same,Number of tdTom+ cells,[16],decrease; also recorded: reduction
same,KCl-mediated MeCP2 phosphorylation,"[12]; Ctx, in the presence of D-APV",35±5%
same,KCl-induced phosphorylation of MeCP2 S421,"[12]; cortex, NBQX alone, p=0.0069",reversed
same,Seizure-induced CaMKII phosphorylation in vivo,[7],prevented
"NCCCNCCCCNCCCNC(=O)Cc1cccc2ccccc12 [NASPM, 1-Napthylacetyl Spermine]",MeCP2 S421 phosphorylation,[1]; [19],12±2%
same,KCl-mediated MeCP2 phosphorylation,"[9]; H, in the presence of D-APV",11±6%
same,MeCP2 S421 phosphorylation,[2]; [19],30±9%
same,KA-induced CaMKII phosphorylation,"[11]; Ctx, in the presence of D-APV",25±5%
same,KA-induced CaMKII phosphorylation,"[11]; H, in the presence of D-APV",28±7%
same,KCl-mediated MeCP2 phosphorylation,"[12]; Ctx, in the presence of D-APV",32±13%
COCCOC(=O)C1=C(C)NC(C)=C(C(=O)OC(C)C)C1c1cccc([N+](=O)[O-])c1 (centres unmarked) [nimodipine],MeCP2 S421 phosphorylation 3 hrs post-HS,[3],103±9%
same,MeCP2 S421 phosphorylation,[1]; [19],4±1%
same,KCl-mediated MeCP2 phosphorylation,"[9]; H, in the presence of D-APV",0±1%
same,MeCP2 S421 phosphorylation,[2]; [19],21±6%
same,KA-induced CaMKII phosphorylation,"[11]; Ctx, in the presence of D-APV",23±9%
same,KA-induced CaMKII phosphorylation,"[11]; H, in the presence of D-APV",33±6%
same,KCl-mediated MeCP2 phosphorylation,"[12]; Ctx, in the presence of D-APV",10±6%
